Results reported in patent US20140179681A1, “METHODS AND COMPOSITIONS OF TARGETED DRUG DEVELOPMENT” (priority 2010, published 2014).
Structures can show the parent of a compound that is named as a salt. Where two headings read alike, the source gives them in different places.

Key:
EGFR = molecular target: T1, EGFR (Homo sapiens, UniProt P00533); assay: EGFR in-cell Western (ICW) screening protocol (EGFR inhibition assay); format: cell-based; design: ICW 1 / ICW 2 / ICW Avg: unit not given here; details: ICW assay; for ICW Avg: average of runs 1 and 2; for ICW 1: run 1; for ICW 2: run 2
T1 construct: host or cells: A431
Method: The following example describes general EGFR in-cell Western (ICW) screening protocol. Methods are according to Chen et al. (2005) Analytical Biochemistry 338, 136-142 (incorporated herein by reference), except as otherwise noted.
Cell Plates: A431 cells (ATCC # CRL-1555) were grown in Dulbecco's Modified Eagle Medium (DMEM; ATCC #30-2002) supplemented with 10% fetal bovine serum, 105 units/ml pen/strep (Invitrogen #15140155) and 2.1 mM L-glutamine (ATCC #30-2214). Cells were seeded into 96 well tissue culture plates (BD Falcon #353948) at a density of 30,000 cells per well and incubated at 37° C. with 5% CO2 overnight. Two cell plates were prepared for each compound plate.
Serum Starvation: The cells were serum starved prior to compound addition. The media was removed by aspiration and the cells washed with PBS (200 μl/well; Invitrogen #20012-027). The PBS was removed by aspiration and replaced with 200 μl of DMEM (ATCC #30-2002) supplemented with 105 units/ml pen/strep (Invitrogen #15140155) and 2.1 mM 1-glutamine (ATCC #30-2214). The cell plates were incubated at 37° C./5% CO2 for 2 hours.
Compound Plate Preparation: The test compounds were solvated in 100% DMSO (Sigma #472301-2L) at a concentration of 25 mM. Compounds found not to be completely soluble in 100% DMSO at 25 mM were diluted to 10 mM with 100% DMSO and TFA (Fluka #91699) added to a final concentration of 0.2%. 40 μl of test compound was added to the appropriate well of a 96 well plate (Falcon #351190). As controls, 6 μM EGFR kinase inhibitor PD168393 (EMD/Calbiochem #513033) in 100% DMSO and DMSO alone were added to various wells. Prepared compound plates were stored at RT prior to use and at 4° C. long term.
Compound Dilution Plate Preparation: 250 μl of DMEM supplemented with 1 mg/ml BSA (Sigma A3059-10G) was added to the appropriate wells of a 96 well plate to prepare the compound dilution plates. Using a multichannel pipettor, 1.25 μl of compound from the compound plate was transferred into the compound dilution plate.
Compound Addition: The starve media was removed from the cell plates by aspiration. Using a multichannel pipettor, the compound dilution plates were mixed by pipetting up and down three times. 50 μl of mixed, diluted compound was added to each of two rows/columns on each of two cell plates. The cell plates with compound were incubated at 37° C./5% CO2 for 4 hours.
EGF Addition: 20 ng/ml EGF (Upstate #01-107) was prepared in DMEM supplemented with 1 mg/ml BSA. 50 μl of 20 or 0 ng/ml EGF was added to the appropriate wells without the removal of compound. The compound and EGF were mixed by pipetting up and down three times. The plates were incubated at 37° C./5% CO2 for 10 min. In some screening assays the final concentration of EGF used for simulation was 6.6, or 12.5 ng/ml rather than 10 ng/ml.
Fixation and Triton Washing: The EGF+compound was removed by aspiration and 150 μl of freshly prepared Fixation Solution (1×PBS, Sigma P3813-10PK, and 4% Formaldehyde, Pierce #28908) was immediately added. The plates were incubated at RT for 20 min without shaking. The Fixation Solution was removed by aspiration and the plates washed four times with 200 μl each of Triton Wash Solution (1×PBS, Sigma P3813-10PK, and 0.1% Triton X-100, T8787-50ML) for 5 min with gentle shaking.
Blocking and Probing: Following the last Triton Wash, the plates were blocked for 1.5 h at RT with shaking using 150 μl of Odyssey Blocking Buffer (LI-COR #927-40000). The block was removed by aspiration and 50 μl of diluted primary Ab mix was added. The plates were incubated at 4° C. overnight with gentle shaking. The plates were washed five times with 200 μl of PBST (1×PBS, Sigma P3813-10PK, and 0.1% Tween-20, Sigma P9416-50ML) for 5 min each with shaking 50 μl of diluted secondary Ab mix was added and the plates incubated at RT for 1 h with shaking. The plates were washed 5× with 200 μl of PBST for 5 min each with shaking. […]

MDBK line = assay: MTT Cell Proliferation Assay, MDBK cells; format: cell-based, bovine; details: MDBK cells, second value of cell, read-out: MTT Assay IC50(A431/MDBK): MDBK
Text: (§1) The following example describes the MTT Cell Proliferation Assay.
(§2) The MTT Cell Proliferation Assay is a colorimetric assay system that measures the reduction of the tetrazolium salt MTT (3-(4,5-dimethylthiazol-2-yl)-2,5-diphenyltetrazolium bromide) into insoluble formazan crystals, produced by the mitochondria of viable cells. […] The color can then be quantified by spectrophotometric means. Among the applications for the method are drug sensitivity, cytotoxicity, response to growth factors, and cell activation. The reduction of tetrazolium salts is now recognized as a safe, accurate alternative to radiometric testing.
(§3) Two replicates on each cell plate and 2 duplicate plates gave 4 individual replicates of each concentration, in each cell line. Concentrations were diluted in 100% DMSO from 25 mM stocks.
(§4) Twelve 96 well plates of each cell line were plated. Plating was done by dislodging cells as in passage protocol, counting on a hemocytometer, re-suspending in standard growth media, and plating using a multichannel pippetor.
(§5) 16 μl of 25 mM stock+34 μl DMSO=8 mM starting concentrations, and serial diluted as with test compounds in same plate. […] Two replicates of each concentrations was run on each cell plate. All compound addition and cell treatments were done using aseptic technique under a laminar flow aseptic hood.
(§6) Control: 0.5% DMSO in treatment media was used as the control.
(§7) MTT dye (Thiazolyl Blue Tetrazolium Bromide, Sigma cat #M5655) stock was prepared in bulk and stored at 4° C. for use: 5 mgs/ml sterile PDS, shielded from light. 4 ul of this stock per 100 uls treatment media per well was used.
(§8) Plates were incubated overnight prior to treatment, with treatment day=Day 0. Compound treatments were prepared prior to washing cells to minimize time cells were dry at room temperature after final aspiration. Compounds were diluted in 100% DMSO in 96 well polypropylene plates: 40 μl 25 mM stock+10 μl DMSO=20 mM; 20 μl of 20 mM+30 μl DMSO=8 mM; 20 μl of 8 mM+30 μl DMSO=3.2 mM; 20 μl of 3.2 mM+30 μl DMSO=1.3 mM; 20 μl of 1.3 mM+30 μl DMSO=0.51 mM.
(§9) 5.0 μl/ml were added to treatment media, in sterile, 2.2 ml deep well plates=0.5% dmso final. Ten μl of each dmso concentration was added to 2.0 ml of treatment media and then mixed using a 1200 μl multichannel pipettor. Cell plates were treated from the deep well plates. Treatment media was standard growth media containing 0.5% FBS and standard additions. This reduced FBS concentration allowed for a slower growth rate in cells.
(§10) Media was aspirated from cell plates, and washed with 200 μl/well sterile PBS. Aspirated PBS wash, and cell plates were treated with 200 μl of compound/treatment media per well, and incubated at 37° C., 5% CO2 for 3 days.
(§11) Prior to harvesting, visual observations were made under an inverted microscope. Plates were harvested by: aspirating the growth media; adding back MTT dye/100 μl treatment media; and incubating plates at 37° C. for 1 hour. MTT dye was aspirated. 100 μl/well dmso was added, and then shaken on a Bellco plate shaker for 5 minutes, at 4.5 setting.
(§12) Plates were read in a Tecan Sunrize UV plate reader, at 560 nm. Settings: Read mode, Outside Normal 2 sec; Shake settle time 3 sec. Data is reported as % inhibition, calculated for individual plates using control values from that plate.

[1] = test system: epithelial carcinoma A431 cell line; assay: MTT Cell Proliferation Assay, A431 cells; format: cell-based; details: for IC50: first value of cell, read-out: MTT Assay IC50(A431/MDBK): A431; for MTT Assay IC50(A431/MDBK): ratio in parentheses: ratio MDBK IC50 / A431 IC50 (selectivity)
Text: as §1, §2, §3, §4, §5, §6, §7, §8, §9, §10, §11, §12

[2] = Homo sapiens, A-431, A431 cells

T1 sequence (P00533 25-1210): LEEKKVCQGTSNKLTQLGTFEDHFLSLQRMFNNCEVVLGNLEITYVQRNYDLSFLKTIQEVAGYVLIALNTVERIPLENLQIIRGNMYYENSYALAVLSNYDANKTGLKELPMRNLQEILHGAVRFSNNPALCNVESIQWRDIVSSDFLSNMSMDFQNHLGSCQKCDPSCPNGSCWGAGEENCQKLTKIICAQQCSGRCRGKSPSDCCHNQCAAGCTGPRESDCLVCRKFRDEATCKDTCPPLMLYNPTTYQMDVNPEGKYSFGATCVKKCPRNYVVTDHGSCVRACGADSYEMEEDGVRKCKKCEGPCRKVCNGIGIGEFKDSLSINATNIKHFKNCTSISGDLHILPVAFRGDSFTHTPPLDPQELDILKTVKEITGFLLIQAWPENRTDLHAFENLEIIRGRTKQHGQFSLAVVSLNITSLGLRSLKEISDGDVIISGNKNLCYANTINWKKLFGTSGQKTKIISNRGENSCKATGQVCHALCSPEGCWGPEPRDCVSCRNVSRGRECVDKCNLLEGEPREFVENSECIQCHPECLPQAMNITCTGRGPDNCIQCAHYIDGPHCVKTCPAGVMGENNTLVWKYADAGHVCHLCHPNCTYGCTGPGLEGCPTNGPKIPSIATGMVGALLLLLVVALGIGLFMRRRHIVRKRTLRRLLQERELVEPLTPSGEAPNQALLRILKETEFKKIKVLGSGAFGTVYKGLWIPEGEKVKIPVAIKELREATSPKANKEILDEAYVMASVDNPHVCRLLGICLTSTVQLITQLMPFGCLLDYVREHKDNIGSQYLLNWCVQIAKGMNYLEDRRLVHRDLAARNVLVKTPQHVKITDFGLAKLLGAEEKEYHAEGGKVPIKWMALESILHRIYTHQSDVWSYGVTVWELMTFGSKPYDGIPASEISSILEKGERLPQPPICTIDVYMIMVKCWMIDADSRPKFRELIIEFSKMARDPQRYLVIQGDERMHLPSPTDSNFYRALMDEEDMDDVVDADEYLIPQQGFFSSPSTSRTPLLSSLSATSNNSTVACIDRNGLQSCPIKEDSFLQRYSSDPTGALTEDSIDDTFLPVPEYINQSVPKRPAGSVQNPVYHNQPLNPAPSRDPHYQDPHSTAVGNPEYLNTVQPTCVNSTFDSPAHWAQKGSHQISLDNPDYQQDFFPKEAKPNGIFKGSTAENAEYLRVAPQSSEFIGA

Cc1ccc2c(C)nc(Nc3nc(-c4ccccc4)cc(=O)[nH]3)nc2c1 [10381 + TFA]
ICW Avg (EGFR): 82.76
ICW 1 (EGFR): 87.04
ICW 2 (EGFR): 78.48
IC50 (MDBK line; Bos taurus, MDBK): 3.01 µM
IC50 [1, 2]: 2.1 µM
MTT Assay IC50(A431/MDBK): ratio in parentheses [1]: 1.43

CCc1ccc2nc(Nc3nc(=O)cc(CSc4nc5ccccc5s4)[nH]3)nc(C)c2c1 [11300 + TFA]
ICW Avg (EGFR): 25.61
ICW 1 (EGFR): 25.11
ICW 2 (EGFR): 26.12
IC50 (MDBK line; Bos taurus, MDBK): 7.95 µM
IC50 [1, 2]: 26.3 µM
MTT Assay IC50(A431/MDBK): ratio in parentheses [1]: 0.30

Cc1nc(Nc2nc(=O)c3c([nH]2)CCCC3)nc2c(C)cccc12 [11436 + TFA]
ICW Avg (EGFR): 59.65
ICW 1 (EGFR): 59.16
ICW 2 (EGFR): 60.14
IC50 (MDBK line; Bos taurus, MDBK): 2.8 µM
IC50 [1, 2]: 5.86 µM
MTT Assay IC50(A431/MDBK): ratio in parentheses [1]: 0.48

Cc1nc(Nc2nc(=O)cc(CSc3ccc(Cl)cc3)[nH]2)nc2ccccc12 [11445 + TFA]
ICW Avg (EGFR): 60.28
ICW 1 (EGFR): 59.54
ICW 2 (EGFR): 61.02
IC50 (MDBK line; Bos taurus, MDBK): 45.1 µM
IC50 ([1]; A431 cells): 9.61 µM
MTT Assay IC50(A431/MDBK): ratio in parentheses [1]: 4.70

COc1ccc(-c2cc(=O)[nH]c(Nc3nc(C)c4ccccc4n3)n2)cc1OC [11471 + TFA]
ICW Avg (EGFR): 39.92
ICW 1 (EGFR): 37.43
ICW 2 (EGFR): 42.40
IC50 (MDBK line; Bos taurus, MDBK): 44.1 µM
IC50 [1, 2]: 36.9 µM
MTT Assay IC50(A431/MDBK): ratio in parentheses [1]: 1.20

COc1cccc2c(C)nc(Nc3nc4c(c(=O)[nH]3)CCCC4)nc12 [11484 + TFA]
ICW Avg (EGFR): 70.65
ICW 1 (EGFR): 67.84
ICW 2 (EGFR): 73.46
IC50 (MDBK line; Bos taurus, MDBK): 9.72 µM
IC50 [1, 2]: 11.3 µM
MTT Assay IC50(A431/MDBK): ratio in parentheses [1]: 0.86

COc1cccc(-c2cc(=O)[nH]c(Nc3nc(C)c4cccc(OC)c4n3)n2)c1 [11513 + TFA]
ICW Avg (EGFR): 33.45
ICW 1 (EGFR): 32.64
ICW 2 (EGFR): 34.26
IC50 (MDBK line; Bos taurus, MDBK): 6.32 µM
IC50 [1, 2]: 6.73 µM
MTT Assay IC50(A431/MDBK): ratio in parentheses [1]: 0.94

Cc1nc(Nc2nc(=O)cc(CSc3ccc(Cl)cc3)[nH]2)nc2ccccc12 [11583 + TFA]
ICW Avg (EGFR): 51.10
ICW 1 (EGFR): 47.93
ICW 2 (EGFR): 54.26
IC50 (MDBK line): 47.3 µM
IC50 ([1]; A431 cells): 47.3 µM
MTT Assay IC50(A431/MDBK): ratio in parentheses [1]: 1.00

COCc1cc(=O)nc(Nc2nc(C)c3cc(C)cc(C)c3n2)[nH]1 [11625 + TFA]
ICW Avg (EGFR): 25.22
ICW 1 (EGFR): 31.51
ICW 2 (EGFR): 18.94
IC50 (MDBK line; Bos taurus, MDBK): 34.7 µM
IC50 [1, 2]: 49 µM
MTT Assay IC50(A431/MDBK): ratio in parentheses [1]: 0.71

Cc1ccc(C2CC(=O)c3cnc(Nc4nc(C)c5cc(C)c(C)cc5n4)nc3C2)cc1 (stereo not drawn) [11670 + TFA]
ICW Avg (EGFR): 25.27
ICW 1 (EGFR): 34.91
ICW 2 (EGFR): 15.63
IC50 (MDBK line; Bos taurus, MDBK): 24.3 µM
IC50 [1, 2]: 13.5 µM
MTT Assay IC50(A431/MDBK): ratio in parentheses [1]: 1.80

CCOc1ccc2nc(Nc3ncc4c(n3)CC(c3ccco3)CC4=O)nc(C)c2c1 (stereo not drawn) [11674 + TFA]
ICW Avg (EGFR): 25.04
ICW 1 (EGFR): 31.91
ICW 2 (EGFR): 18.16
IC50 (MDBK line; Bos taurus, MDBK): 35.5 µM
IC50 [1, 2]: 20.2 µM
MTT Assay IC50(A431/MDBK): ratio in parentheses [1]: 1.76

Cc1nc(Nc2ncc3c(n2)CC(c2ccco2)CC3=O)nc2ccccc12 (stereo not drawn) [11679 + TFA]
ICW Avg (EGFR): 25.83
ICW 1 (EGFR): 31.02
ICW 2 (EGFR): 20.64
IC50 (MDBK line; Bos taurus, MDBK): 8.73 µM
IC50 [1, 2]: 12.6 µM
MTT Assay IC50(A431/MDBK): ratio in parentheses [1]: 0.70
